Laboratory results as given in patent publication EP0501375A1 (priority 1991, dated 1992).
*1 amine or outer side, *2 acyl side, *3 side chain or, on linkers, in order; H or OH if unused. Where a SMILES comes first, the peptide text is derived from it. CO = O=C([*:1])[*:2]

How the values were obtained:
alkaline protease K-16 [1] = biological target: T1, alkaline protease K-16 (Shouchella clausii, UniProt Q99405); test: Effects of metal ions on protease activity; type: biochemical, Bacillus sp. KSM-K16; details: metal salt 1 mM; for Residual Activity: pH 9.5, 30°C for 20 minutes, relative to no metal salt; for effect on activity of the alkaline protease K-16 (in words): 30°C for 20 minutes
T1 sequence (Q99405 112-380): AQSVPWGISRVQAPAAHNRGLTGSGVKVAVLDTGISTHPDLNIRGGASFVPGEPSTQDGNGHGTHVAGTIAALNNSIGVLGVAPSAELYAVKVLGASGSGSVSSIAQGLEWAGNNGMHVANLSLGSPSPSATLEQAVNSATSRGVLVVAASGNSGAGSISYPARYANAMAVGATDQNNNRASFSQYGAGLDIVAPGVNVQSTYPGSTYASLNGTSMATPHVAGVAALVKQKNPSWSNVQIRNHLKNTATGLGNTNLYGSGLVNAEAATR
Description: A 1 ml portion of 50 mM boric acid-NaOH buffer (pH 10) containing 1% casein was mixed with 0.1 ml of enzyme solution, and the mixture was incubated at 40°C for 10 minutes. The reaction was stopped by adding 2 ml of a solution containing 0.123 M trichloroacetic acid, 0.246 M sodium acetate and 0.369 M acetic acid. After allowing to stand at 30°C for 20 minutes, the resulting mixture was filtered through a filter paper (manufactured by Whatman; No. 2), and the filtrate was checked for its contents of proteolytic products in accordance with the modified Folin-Lowry method. One unit of activity (1 P.U.) was defined as the amount of enzyme which produces 1 mmole of tyrosine per minute.
Effects of various metal ions on the activity of the alkaline protease K-16 were examined. A 20 mM boric acid-NaOH buffer (pH 9.5) solution containing 1 mM of a metal salt was mixed with 3.9 x 10⁻³ P.U. of the alkaline protease K-16, and the mixture was maintained at 30°C for 20 minutes. Thereafter, the thus treated mixture was diluted with 50 mM boric acid-NaOH buffer (pH 10.0) by a factor of 5 to measure residual activity which was then calculated as relative value based on the activity measured in the same manner in the absence of metal salts. […] Also, as is evident from the results described in the foregoing items (5) and (6), thermal stability of this enzyme is improved in the presence of Ca²⁺ TABLE 3

alkaline protease K-16 [2] = biological target: T1, alkaline protease K-16; test: biochemical; type: biochemical, Bacillus sp. KSM-K16

SMILES: O=[N+]([O-])[O-].[Ag+] [AgNO₃]
- Residual Activity (alkaline protease K-16 [1]): 86%

SMILES: CC(C)[C@H](NC(=O)[C@H](CCCNC(=N)N)NC(=O)N[C@@H](Cc1ccccc1)C(=O)O)C(=O)N[C@H](C=O)CCCNC(=N)N [Antipain] ({Phe-CO}-Arg-Val-Arg-aldehyde)
- Residual Activity (alkaline protease K-16 [2]; pH 7): 108%

SMILES: [Ca+2].[Cl-].[Cl-] [CaCl₂]
- Residual Activity (alkaline protease K-16 [1]): 103%

SMILES: CC(C)C[C@H](NC(=O)[C@@H](NC(=O)N[C@@H](Cc1ccccc1)C(=O)O)[C@@H]1CCN=C(N)N1)C(=O)N[C@H](C=O)Cc1ccccc1 [Chymostatin]
- Residual Activity (alkaline protease K-16 [2]; pH 7): 34%
- effect on activity of the alkaline protease K-16 (in words) (alkaline protease K-16 [2]; pH 7): inhibited

SMILES: [Cl-].[Cl-].[Co+2] [CoCl₂]
- Residual Activity (alkaline protease K-16 [1]): 103%

SMILES: O=S(=O)([O-])[O-].[Cu+2] [CuSO₄]
- effect on activity of the alkaline protease K-16 (in words) (alkaline protease K-16 [1]): inhibited
- Residual Activity (alkaline protease K-16 [1]): 73%

SMILES: O=C(O)CN(CCN(CC(=O)O)CC(=O)O)CC(=O)O [EDTA]
- remaining activity at 5000 µM (alkaline protease K-16 [2]; pH 7, read-out: Residual Activity): 107%

SMILES: [Cl][Hg][Cl] [HgCl₂]
- effect on activity of the alkaline protease K-16 (in words) (alkaline protease K-16 [1]): inhibited
- Residual Activity (alkaline protease K-16 [1]): 46%

SMILES: [Cl][Ni][Cl] [NiCl₂]
- Residual Activity (alkaline protease K-16 [1]): 103%

SMILES: [Cl][Pb][Cl] [PbCl₂]
- Residual Activity (alkaline protease K-16 [1]): 100%

SMILES: [Cl-].[Cl-].[Zn+2] [ZnCl₂]
- Residual Activity (alkaline protease K-16 [1]): 106%
